In the OligoGym collection:
“And” between values parts separate entries of the source, which are not always exact repeats. Equal entries are not always repeated. After the bases stand the sugars from the 5' end (letter, count) and the backbone: PS all phosphorothioate, else s phosphorothioate and o phosphodiester by linkage. Methylation of C is not given here. [mop] = methoxypropylphosphonate linkage; e = 2'-O-(2-methoxyethyl) (MOE); k = constrained ethyl (cEt); d = 2'-deoxy (DNA)

Target: IRF5
Conditions: ASO

| Sequence | target mRNA inhibition (KARPAS-229, 4 µM) | also measured |
| --- | --- | --- |
| CAATTTTGCATTCCAT (sugars kdddddddddkekeke, PS) | 19% |  |
| CACATCTCCACATCAG (sugars k3 d9 k3 e1, PS) | 25% |  |
| CACCACTGTGTACCCC (sugars kkddddddddkekekk, PS) | 0% |  |
| CACTGACACAGGCGGA (sugars k3 d9 k3 e1, PS) | 0% |  |
| CACTGACACAGGCGGA (sugars kdddddddddkekeke, PS) | 0% |  |
| CACTGACACAGGCGGA (sugars kkkddddddddkekek, PS) | 0% |  |
| CAGGTTCTTGGACTCT (sugars kdddddddddkekeke, PS) | 0% |  |
| CAGGTTCTTGGACTCT (sugars kkkdddddddddkeke, PS) | 1% |  |
| CATCTCCACATCAGTC (sugars kkddddddddkekekk, PS) | 23% |  |
| CATTCCATATACACAC (sugars k2 d9 e3 k2, PS) | 21% |  |
| CATTCCATATACACAC (sugars k3 d10 k3, PS) | 28% |  |
| CATTCCATATACACAC (sugars kdddddddddkekeke, PS) | 7% |  |
| CATTCCATATACACAC (sugars kekdddddddddeekk, PS) | 24% |  |
| CATTCCATATACACAC (sugars kkddddddddddkeke, PS) | 30% |  |
| CATTCCATATACACAC (sugars kkddddddddkekekk, PS) | 17% |  |
| CCAATGCAACATCCAT (sugars k2 d8 e4 k2, PS) | 0% |  |
| CCAATGCAACATCCAT (sugars k3 d9 k3 e1, PS) | 16% |  |
| CCAATGCAACATCCAT (sugars kkddddddddkekekk, PS) | 0% |  |
| CCAATTTTGCATTCCA (sugars k2 d9 e3 k2, PS) | 30% |  |
| CCAATTTTGCATTCCA (sugars k3 d9 k3 e1, PS) |  | target mRNA inhibition (KARPAS-229, 0.44444 µM): 61% and 54% and 62%; target mRNA inhibition (KARPAS-229, 1.33333 µM): 79% and 75% and 82%; target mRNA inhibition (KARPAS-229, 12 µM): 88% and 91% |
| CCAATTTTGCATTCCA (sugars kkkddddddddkekek, PS) | 42% |  |
| CCATTCTATGCCTTTT (sugars k3 d10 k3, PS) | 43% |  |
| CCATTCTATGCCTTTT (sugars kkdddddddddkekek, PS) | 62% and 61% | target mRNA inhibition (KARPAS-229, 0.44444 µM): 29%; target mRNA inhibition (KARPAS-229, 12 µM): 81% |

| Sequence | target mRNA inhibition (KARPAS-229, 4 µM) | also measured |
| --- | --- | --- |
| CCCAATGCAACATCCA (sugars kkkdddddddddkeke, PS) | 0% |  |
| CCTTCTGCAGGGAGTC (sugars kddddddddddkekek, PS) | 0% |  |
| CCTTCTGCAGGGAGTC (sugars kdddddddddkekeke, PS) | 0% |  |
| CCTTCTGCAGGGAGTC (sugars kekdddddddddeekk, PS) | 14% |  |
| CCTTCTGCAGGGAGTC (sugars kkkddddddddkekek, PS) | 0% |  |
| CGGTCTTTGAGGTCTG (sugars kekdddddddddeekk, PS) | 49% |  |
| CGGTCTTTGAGGTCTG (sugars kkdddddddddkekek, PS) | 44% |  |
| CGGTCTTTGAGGTCTG (sugars kkkddddddddkdkdk, PS) | 57% |  |
| CTGATATGATACCTAA (sugars k3 d2 k1 d7 k3, PS) |  | target mRNA inhibition (A-431, 0.00412 µM): 18%; target mRNA inhibition (A-431, 0.01225 µM): 23%; target mRNA inhibition (A-431, 0.03704 µM): 41%; target mRNA inhibition (A-431, 0.11111 µM): 63%; target mRNA inhibition (A-431, 0.33333 µM): 80%; target mRNA inhibition (A-431, 1 µM): 75% |
| CTGATATGATACCTAA (sugars k3 d10 k3, PS) | 59% and 76% | target mRNA inhibition (A-431, 0.00412 µM): 13%; target mRNA inhibition (A-431, 0.01225 µM): 29%; target mRNA inhibition (A-431, 0.03704 µM): 54%; target mRNA inhibition (A-431, 0.11111 µM): 80%; target mRNA inhibition (A-431, 0.33333 µM): 88%; target mRNA inhibition (A-431, 1 µM): 90%; target mRNA inhibition (KARPAS-229, 0.44444 µM): 42%; target mRNA inhibition (KARPAS-229, 1.33333 µM): 45%; target mRNA inhibition (KARPAS-229, 12 µM): 77% |
| CTGATATGATACCTAA (sugars k3 d10 k3, linkages s5 [mop]1 s9) |  | target mRNA inhibition (A-431, 0.00412 µM): 0%; target mRNA inhibition (A-431, 0.01225 µM): 15%; target mRNA inhibition (A-431, 0.03704 µM): 25%; target mRNA inhibition (A-431, 0.11111 µM): 54%; target mRNA inhibition (A-431, 0.33333 µM): 71%; target mRNA inhibition (A-431, 1 µM): 71% |
| CTGTCACATCTCCACA (sugars k3 d9 k3 e1, PS) | 28% |  |
| CTGTCACATCTCCACA (sugars kkdddddddddkekek, PS) | 23% |  |
| CTGTCACATCTCCACA (sugars kkkddddddddkekek, PS) | 0% |  |
| CTTCTGCAGGGAGTCA (sugars kkddddddddddkeke, PS) | 8% |  |
| CTTCTGCAGGGAGTCA (sugars kkdddddddddkekek, PS) | 0% |  |
| CTTGGTCTTGACCTCC (sugars k2 d9 e3 k2, PS) | 11% |  |
| CTTGGTCTTGACCTCC (sugars kdddddddddkekeke, PS) | 0% |  |
| CTTGGTCTTGACCTCC (sugars kekdddddddddeekk, PS) | 36% |  |
| CTTTTTGCTCTAAACC (sugars k3 d10 k3, PS) | 0% |  |
| GAAGTGAGTCTCAAAC (sugars kdddddddddkekeke, PS) | 11% |  |
| GAGTCATGGGCTGAGG (sugars k3 d9 k3 e1, PS) | 0% |  |
| GAGTCATGGGCTGAGG (sugars kkddddddddddkeke, PS) | 40% |  |

| Sequence | target mRNA inhibition (KARPAS-229, 4 µM) | also measured |
| --- | --- | --- |
| GAGTGAGACGAGCAAA (sugars k3 d10 k3, PS) | 27% |  |
| GAGTGAGACGAGCAAA (sugars kkddddddddkekekk, PS) | 17% |  |
| GCATTCCATATACACA (sugars k3 d9 k3 e1, PS) | 25% |  |
| GCATTCCATATACACA (sugars kddddddddddkekek, PS) | 39% |  |
| GCATTCCATATACACA (sugars kekdddddddddeekk, PS) | 48% |  |
| GCATTCCATATACACA (sugars kkkdddddddddkeke, PS) | 45% |  |
| GCATTCCATATACACA (sugars kkkddddddddkdkdk, PS) | 0% |  |
| GCCTTCTGCAGGGAGT (sugars k3 d10 k3, PS) | 0% |  |
| GCTGTCACATCTCCAC (sugars k3 d9 k3 e1, PS) | 23% |  |
| GCTGTCACATCTCCAC (sugars kekdddddddddeekk, PS) | 0% |  |
| GCTGTCACATCTCCAC (sugars kkdddddddddkekek, PS) | 5% |  |
| GCTTGGTCTTGACCTC (sugars k3 d9 k3 e1, PS) | 29% |  |
| GCTTGGTCTTGACCTC (sugars kdddddddddkekeke, PS) | 17% |  |
| GCTTGGTCTTGACCTC (sugars kkdddddddddkdkdk, PS) | 11% |  |
| GCTTGGTCTTGACCTC (sugars kkkddddddddkekek, PS) | 0% |  |
| GGAAGTGAGTCTCAAA (sugars kkddddddddddkeke, PS) | 55% and 49% | target mRNA inhibition (KARPAS-229, 0.44444 µM): 6%; target mRNA inhibition (KARPAS-229, 1.33333 µM): 12%; target mRNA inhibition (KARPAS-229, 12 µM): 65% |
| GGTCTGGCCCTTTTGG (sugars k3 d10 k3, PS) | 16% |  |
| GGTCTGGCCCTTTTGG (sugars kkkddddddddkekek, PS) | 2% |  |
| GGTCTTGACCTCCCGC (sugars k3 d9 k3 e1, PS) | 22% |  |
| GGTCTTGACCTCCCGC (sugars kekdddddddddeekk, PS) | 33% |  |
| GGTCTTGACCTCCCGC (sugars kkkdddddddddkeke, PS) | 7% |  |
| GGTCTTTGAGGTCTGG (sugars kkdddddddddkdkdk, PS) | 56% |  |
| GGTGAGTAGGACGAGT (sugars k3 d10 k3, PS) | 48% |  |

| Sequence | target mRNA inhibition (KARPAS-229, 4 µM) | also measured |
| --- | --- | --- |
| GGTGTATTTCCCTGTC (sugars k3 d10 k3, PS) |  | target mRNA inhibition (KARPAS-229, 0.44444 µM): 32% and 25%; target mRNA inhibition (KARPAS-229, 1.33333 µM): 38% and 56%; target mRNA inhibition (KARPAS-229, 12 µM): 69% and 67% |
| GGTGTATTTCCCTGTC (sugars kkddddddddddkeke, PS) | 21% |  |
| GGTTCTTGGACTCTCA (sugars k2 d11 k3, PS) | 47% |  |
| GGTTCTTGGACTCTCA (sugars k3 d9 k3 e1, PS) | 0% |  |
| GGTTCTTGGACTCTCA (sugars k3 d10 k3, PS) |  | target mRNA inhibition (KARPAS-229, 0.44444 µM): 52% and 54%; target mRNA inhibition (KARPAS-229, 1.33333 µM): 65% and 72%; target mRNA inhibition (KARPAS-229, 12 µM): 86% and 82% |
| GGTTCTTGGACTCTCA (sugars kekdddddddddeekk, PS) | 60% and 66% | target mRNA inhibition (KARPAS-229, 0.44444 µM): 31%; target mRNA inhibition (KARPAS-229, 1.33333 µM): 44%; target mRNA inhibition (KARPAS-229, 12 µM): 81% |
| GGTTCTTGGACTCTCA (sugars kkdddddddddkdkdk, PS) | 29% |  |
| GGTTCTTGGACTCTCA (sugars kkddddddddkekekk, PS) | 0% |  |
| GTAATAGGAGTGAGAC (sugars k3 d10 k3, PS) | 11% |  |
| GTCTAGTGTCATGGAA (sugars kddddddddddkekek, PS) | 42% |  |
| GTCTAGTGTCATGGAA (sugars kdddddddddkekeke, PS) | 35% |  |
| GTCTGGCCCTTTTGGA (sugars kkkddddddddkekek, PS) | 0% |  |
| GTCTTGACCTCCCGCT (sugars k3 d9 k3 e1, PS) | 51% |  |
| GTCTTGACCTCCCGCT (sugars kkddddddddddkeke, PS) | 65% and 69% | target mRNA inhibition (KARPAS-229, 0.44444 µM): 38%; target mRNA inhibition (KARPAS-229, 1.33333 µM): 47%; target mRNA inhibition (KARPAS-229, 12 µM): 78% |
| GTCTTTGAGGTCTGGG (sugars kkddddddddkekekk, PS) | 34% |  |
| GTGAGTCTCAAACCAG (sugars kkddddddddddkeke, PS) | 31% |  |
| GTGTATTTCCCTGTCT (sugars k2 d9 e3 k2, PS) | 16% |  |
| GTGTCATGGAATTTTG (sugars k3 d10 k3, PS) | 58% |  |
| GTTCTTGGACTCTCAA (sugars k3 d9 k3 e1, PS) | 37% |  |
| GTTCTTGGACTCTCAA (sugars kddddddddddkekek, PS) | 35% |  |
| GTTCTTGGACTCTCAA (sugars kdddddddddkekeke, PS) | 0% |  |
